Laboratory results as given in patent US20180298317A1, “DEVICES FOR SIMULATING A FUNCTION OF A TISSUE AND METHODS OF USE AND MANUFACTURING THEREOF” (PRESIDENT AND FELLOWS OF HARVARD COLLEGE, priority 2015, published 2018).

Assays:
[1] = system: human brain microvascular endothelial cells with pericytes or astrocytes; assay: Inflammatory stimulation and cytokine release in 3D BBB chip; assay type: cell-based
Protocol: Microfluidic chips and Transwell inserts were cultured for about 72 hours, followed by incubation in CSC complete medium with fetal bovine serum reduced from about 10% to about 2% for about 18 hours. Microfluidics chips were stimulated with TNF-α (Sigma-Aldrich) at about 50 ng/ml in CSC complete medium with about 2% serum for about 6 hrs (about 5 min flow at about 120 μl/min corresponding to about 1 dyne/cm^2, followed by static conditions). Transwells were stimulated on the apical and the basal side. Following thorough rinsing of microfluidic chips under continuous flow (about 120 μl/min, about 1 dyne/cm^2) and batch washes of Transwell plates with CSC complete medium with about 2% serum, conditioned medium from the chips was collected continuously for about 1 hour at about 100 μl/hr (about 0.01 dyne/cm^2) using syringe-driven flow; medium from the apical compartment was collected from Transwells after about 1 hour. The cytokine release profile was assayed with the Bio-Plex Pro Human Cytokine 17-plex Assay (Bio-Rad) in a Bioplex 3D system (Bio-Rad), and the resulting cytokine release profiles were normalized to cell culture area in 3D BBB chips versus Transwells.
(§1) To explore whether we can use the synthetic nature of the 3D BBB chip to analyze the contributions of individual brain vasculature-associated cells to neuroinflammation, the engineered microvessels were cultured in the presence or absence of TNF-α (about 50 ng/ml) that was flowed through the lumen for about 6 hours. Cytokine release profiles produced in the 3D BBB chips containing endothelium with or without either pericytes or astrocytes were then analyzed, and the results were compared to those obtained with similar mono-cultures, as well as co-cultures maintained in commercial Transwell culture plates.

[2] = system: human brain microvascular endothelial cells with pericytes or astrocytes; assay: Inflammatory stimulation and cytokine release in static Transwell cultures; assay type: cell-based
Protocol: 24-well Transwell inserts (Corning), about 0.4 μm, polyethylene terephthalate membranes, were coated with rat-tail collagen I (Corning) at about 100 μg/ml in phosphate-buffered saline for about 2 hours. The inserts were inverted and pericytes or astrocytes were seeded at about 6.25×10^3 cells per insert. After about 2 hours of incubation, the inserts were placed in 24-well plates and seeded with hBMVEC at about 2.5×10^4 cells per insert. Transendothelial electrical resistance (TEER) values were measured after about 120 hrs of culture using an EndOhm (WPI) and chopstick electrodes. Paracellular diffusion was assayed about 5 minutes after adding dextran 3 kDa-Alexa488 (about 100 μg/ml) to the apical chamber and using a Synergy Neo platereader (BioTek (Winooski, Vt., USA)).
Microfluidic chips and Transwell inserts were cultured for about 72 hours, followed by incubation in CSC complete medium with fetal bovine serum reduced from about 10% to about 2% for about 18 hours. Microfluidics chips were stimulated with TNF-α (Sigma-Aldrich) at about 50 ng/ml in CSC complete medium with about 2% serum for about 6 hrs (about 5 min flow at about 120 μl/min corresponding to about 1 dyne/cm^2, followed by static conditions). Transwells were stimulated on the apical and the basal side. […]
as §1

With TNF-α the IL-6 induction ([1]; 3D BBB chip co-cultures of astrocytes-endothelial cells and pericytes-endothelial cells, about 50 ng/ml, about 6 hours) was “strong IL-6 induction”, the “IL-8 production in response to stimulation” value ([1]; 3D BBB chip, astrocytes or pericytes in combination with endothelial cells) was “enhanced IL-8 production” and the “induction of G-CSF secretion” value ([1]; 3D BBB chip, pericytes with endothelium, about 50 ng/ml, about 6 hours) was “generally not sensitive to induction”. For the same substance, the “increase in G-CSF secretion in response to TNF-α stimulation” value ([1]; 3D BBB chips containing astrocytes and endothelial cells, about 50 ng/ml, about 6 hours) was ≤ 10 fold, the IL-6 induction ([2]; Transwell co-cultures, about 50 ng/ml, about 6 hours) was “barely detectable” and the “IL-8 production in response to stimulation” value ([2]; Transwell cultures, astrocytes or pericytes in combination with endothelial cells) was “enhanced IL-8 production”. The “induction of G-CSF secretion” value ([2]; endothelial cells and astrocytes co-cultured under static conditions in Transwells, about 50 ng/ml, about 6 hours) was “could not be detected”.
